Here are results for two compounds from ChEMBL document CHEMBL4507319 (2021).

Common to all, as to conditions: Compound concentration 1000.0 nM
Experiment [1] concerns the target T1, Serine/threonine-protein kinase STK11 (Homo sapiens) (UniProt Q15831).
T1 sequence (whole entry): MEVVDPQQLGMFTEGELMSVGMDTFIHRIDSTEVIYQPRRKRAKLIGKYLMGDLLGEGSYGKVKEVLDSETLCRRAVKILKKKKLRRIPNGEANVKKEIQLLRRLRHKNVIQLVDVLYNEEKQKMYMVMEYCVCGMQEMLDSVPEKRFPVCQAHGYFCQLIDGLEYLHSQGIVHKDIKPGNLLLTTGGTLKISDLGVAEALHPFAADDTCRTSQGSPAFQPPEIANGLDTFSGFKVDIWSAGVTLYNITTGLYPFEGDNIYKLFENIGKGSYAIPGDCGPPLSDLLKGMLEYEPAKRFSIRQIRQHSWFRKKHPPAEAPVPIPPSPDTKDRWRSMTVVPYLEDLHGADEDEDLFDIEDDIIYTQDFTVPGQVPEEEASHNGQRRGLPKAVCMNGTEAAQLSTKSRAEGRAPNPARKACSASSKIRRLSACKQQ

Experiment [2] addresses Serine/threonine-protein kinase MRCK beta (Homo sapiens) (UniProt Q9Y5S2).
In experiment [3] the target is Serine/threonine-protein kinase Nek5 (Homo sapiens) (UniProt Q6P3R8).
Serine/threonine-protein kinase Nek5 (Homo sapiens), sequence (Q6P3R8 whole entry): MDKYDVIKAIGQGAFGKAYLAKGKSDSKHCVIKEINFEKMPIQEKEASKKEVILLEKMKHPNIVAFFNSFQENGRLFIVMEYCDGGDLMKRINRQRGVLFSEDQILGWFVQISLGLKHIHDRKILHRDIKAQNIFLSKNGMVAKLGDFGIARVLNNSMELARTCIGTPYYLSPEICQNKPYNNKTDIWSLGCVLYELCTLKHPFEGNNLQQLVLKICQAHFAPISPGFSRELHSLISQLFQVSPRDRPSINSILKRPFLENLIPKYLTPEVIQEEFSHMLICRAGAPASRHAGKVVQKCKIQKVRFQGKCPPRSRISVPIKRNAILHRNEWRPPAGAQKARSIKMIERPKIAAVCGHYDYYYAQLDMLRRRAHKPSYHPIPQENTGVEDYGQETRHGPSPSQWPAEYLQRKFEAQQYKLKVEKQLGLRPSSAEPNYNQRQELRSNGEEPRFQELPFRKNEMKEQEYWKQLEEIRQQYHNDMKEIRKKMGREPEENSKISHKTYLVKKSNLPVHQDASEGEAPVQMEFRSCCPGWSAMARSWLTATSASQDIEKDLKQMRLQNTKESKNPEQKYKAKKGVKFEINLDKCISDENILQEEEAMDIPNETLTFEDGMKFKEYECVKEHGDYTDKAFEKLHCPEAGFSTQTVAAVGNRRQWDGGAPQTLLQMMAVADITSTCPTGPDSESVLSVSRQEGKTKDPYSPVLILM
In experiment [4] the target is Glycogen synthase kinase-3 alpha (Homo sapiens) (UniProt P49840).
Glycogen synthase kinase-3 alpha (Homo sapiens), sequence (P49840 2-483 limits assumed): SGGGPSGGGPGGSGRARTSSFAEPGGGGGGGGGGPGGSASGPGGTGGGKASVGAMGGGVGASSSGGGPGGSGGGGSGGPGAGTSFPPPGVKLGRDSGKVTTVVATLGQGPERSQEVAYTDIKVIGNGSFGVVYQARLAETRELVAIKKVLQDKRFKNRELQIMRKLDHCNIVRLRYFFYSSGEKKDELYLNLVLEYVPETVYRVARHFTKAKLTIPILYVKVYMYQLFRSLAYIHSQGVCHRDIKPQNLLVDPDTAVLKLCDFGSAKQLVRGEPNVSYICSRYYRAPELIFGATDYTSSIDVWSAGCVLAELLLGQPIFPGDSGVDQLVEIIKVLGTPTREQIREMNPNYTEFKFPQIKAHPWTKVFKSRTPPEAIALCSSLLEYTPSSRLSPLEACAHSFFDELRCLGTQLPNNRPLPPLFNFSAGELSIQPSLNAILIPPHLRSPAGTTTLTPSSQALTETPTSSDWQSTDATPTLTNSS
The target in experiment [5] is Cyclin-dependent kinase-like 5 (Homo sapiens) (UniProt O76039).
Cyclin-dependent kinase-like 5 (Homo sapiens), sequence (O76039 whole entry): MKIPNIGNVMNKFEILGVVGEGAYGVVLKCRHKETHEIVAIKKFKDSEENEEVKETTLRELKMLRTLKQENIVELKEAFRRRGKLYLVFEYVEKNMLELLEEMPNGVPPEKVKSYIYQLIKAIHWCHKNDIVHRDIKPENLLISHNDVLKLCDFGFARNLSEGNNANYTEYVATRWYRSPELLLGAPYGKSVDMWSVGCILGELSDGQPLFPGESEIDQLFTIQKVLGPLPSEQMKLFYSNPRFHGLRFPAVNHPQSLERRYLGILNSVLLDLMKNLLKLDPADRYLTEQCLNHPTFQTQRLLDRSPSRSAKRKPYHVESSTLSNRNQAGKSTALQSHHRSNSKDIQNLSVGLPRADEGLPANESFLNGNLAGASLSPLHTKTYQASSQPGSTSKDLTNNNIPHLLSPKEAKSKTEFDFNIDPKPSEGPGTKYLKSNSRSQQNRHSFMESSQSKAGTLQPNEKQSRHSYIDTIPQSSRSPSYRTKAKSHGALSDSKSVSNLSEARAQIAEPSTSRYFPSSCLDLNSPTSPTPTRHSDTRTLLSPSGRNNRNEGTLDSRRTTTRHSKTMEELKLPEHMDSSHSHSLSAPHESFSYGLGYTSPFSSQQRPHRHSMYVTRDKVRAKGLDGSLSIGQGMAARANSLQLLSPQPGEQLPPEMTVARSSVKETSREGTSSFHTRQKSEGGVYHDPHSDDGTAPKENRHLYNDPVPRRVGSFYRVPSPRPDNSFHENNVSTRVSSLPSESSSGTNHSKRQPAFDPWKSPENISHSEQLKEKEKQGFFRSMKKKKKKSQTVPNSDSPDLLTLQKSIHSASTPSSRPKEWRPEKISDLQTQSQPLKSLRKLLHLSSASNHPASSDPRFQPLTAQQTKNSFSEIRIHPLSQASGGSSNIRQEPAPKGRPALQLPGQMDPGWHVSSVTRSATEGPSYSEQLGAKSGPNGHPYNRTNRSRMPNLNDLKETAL
Experiment [6] relates to Tyrosine-protein kinase ABL1 (Homo sapiens), P00519 [Q252H].
Experiment [7] concerns the target Ribosomal protein S6 kinase alpha-1 (Homo sapiens, UniProt Q15418).
Experiment [8] addresses Cyclin-dependent kinase 3 (Homo sapiens) (UniProt Q00526).
The target in experiment [9] is Macrophage colony-stimulating factor 1 receptor (Homo sapiens) (UniProt P07333).
Macrophage colony-stimulating factor 1 receptor (Homo sapiens), sequence (P07333 whole entry): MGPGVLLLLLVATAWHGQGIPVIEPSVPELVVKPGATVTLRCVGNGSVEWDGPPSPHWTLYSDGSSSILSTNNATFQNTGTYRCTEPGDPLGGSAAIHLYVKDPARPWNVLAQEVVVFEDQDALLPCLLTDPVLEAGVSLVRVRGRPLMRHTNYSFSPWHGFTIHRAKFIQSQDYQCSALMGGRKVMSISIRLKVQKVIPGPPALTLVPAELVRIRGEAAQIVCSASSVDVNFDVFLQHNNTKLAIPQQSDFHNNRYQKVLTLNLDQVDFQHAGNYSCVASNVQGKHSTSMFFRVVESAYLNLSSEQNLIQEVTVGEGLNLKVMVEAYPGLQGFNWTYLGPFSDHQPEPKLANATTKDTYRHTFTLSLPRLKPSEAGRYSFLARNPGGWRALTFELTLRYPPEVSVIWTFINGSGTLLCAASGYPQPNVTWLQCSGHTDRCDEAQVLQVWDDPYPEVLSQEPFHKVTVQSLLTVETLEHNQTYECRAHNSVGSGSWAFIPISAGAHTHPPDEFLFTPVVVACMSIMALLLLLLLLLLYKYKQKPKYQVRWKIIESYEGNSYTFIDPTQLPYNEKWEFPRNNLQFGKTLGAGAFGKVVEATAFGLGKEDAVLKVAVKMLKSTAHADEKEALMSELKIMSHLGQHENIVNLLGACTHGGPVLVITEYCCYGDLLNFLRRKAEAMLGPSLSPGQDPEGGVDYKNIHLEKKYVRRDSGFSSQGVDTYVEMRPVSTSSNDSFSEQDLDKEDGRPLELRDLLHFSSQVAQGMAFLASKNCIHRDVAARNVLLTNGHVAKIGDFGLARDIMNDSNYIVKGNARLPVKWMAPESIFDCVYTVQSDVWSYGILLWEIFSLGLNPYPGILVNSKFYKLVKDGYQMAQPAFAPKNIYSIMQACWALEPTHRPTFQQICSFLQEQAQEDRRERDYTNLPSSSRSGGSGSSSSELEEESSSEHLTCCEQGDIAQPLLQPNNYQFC
Experiment [10] concerns the target Calcium/calmodulin-dependent protein kinase type 1 (Homo sapiens) (UniProt Q14012).
Experiment [11] has as its target T2, Activin receptor type-1B (Homo sapiens) (UniProt P36896).
T2 sequence (whole entry): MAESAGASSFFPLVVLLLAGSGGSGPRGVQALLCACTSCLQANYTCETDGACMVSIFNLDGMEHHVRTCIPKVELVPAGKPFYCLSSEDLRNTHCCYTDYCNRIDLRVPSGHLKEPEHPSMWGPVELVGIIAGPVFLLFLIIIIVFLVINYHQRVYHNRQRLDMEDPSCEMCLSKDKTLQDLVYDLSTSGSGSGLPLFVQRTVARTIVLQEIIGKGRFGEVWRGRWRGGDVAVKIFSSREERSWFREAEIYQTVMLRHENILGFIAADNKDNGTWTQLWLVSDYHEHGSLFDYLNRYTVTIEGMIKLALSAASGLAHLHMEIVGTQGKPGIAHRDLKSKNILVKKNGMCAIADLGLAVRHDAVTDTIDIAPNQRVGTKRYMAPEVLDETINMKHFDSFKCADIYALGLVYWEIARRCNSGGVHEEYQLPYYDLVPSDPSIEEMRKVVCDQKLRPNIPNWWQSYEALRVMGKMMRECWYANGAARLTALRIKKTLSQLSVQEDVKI

In experiment [12] the target is T3, Interleukin-1 receptor-associated kinase 4 (Homo sapiens) (UniProt Q9NWZ3).
T3 sequence (whole entry): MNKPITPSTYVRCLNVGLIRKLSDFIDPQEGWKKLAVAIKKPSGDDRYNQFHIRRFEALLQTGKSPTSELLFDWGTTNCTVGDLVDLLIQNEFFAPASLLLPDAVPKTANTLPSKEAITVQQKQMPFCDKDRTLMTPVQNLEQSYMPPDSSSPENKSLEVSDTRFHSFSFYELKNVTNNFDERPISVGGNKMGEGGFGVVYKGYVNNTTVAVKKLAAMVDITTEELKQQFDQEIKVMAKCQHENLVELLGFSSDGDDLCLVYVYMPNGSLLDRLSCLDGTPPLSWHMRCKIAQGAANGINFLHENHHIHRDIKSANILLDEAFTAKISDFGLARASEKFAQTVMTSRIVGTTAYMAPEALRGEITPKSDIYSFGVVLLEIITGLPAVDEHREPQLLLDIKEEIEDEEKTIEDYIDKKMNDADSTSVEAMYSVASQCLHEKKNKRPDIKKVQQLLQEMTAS

In experiment [13] the target is Mast/stem cell growth factor receptor Kit (Homo sapiens) (UniProt P10721).
Experiment [14] has as its target T4, Serine/threonine-protein kinase Chk1 (Homo sapiens) (UniProt O14757).
T4 sequence (whole entry): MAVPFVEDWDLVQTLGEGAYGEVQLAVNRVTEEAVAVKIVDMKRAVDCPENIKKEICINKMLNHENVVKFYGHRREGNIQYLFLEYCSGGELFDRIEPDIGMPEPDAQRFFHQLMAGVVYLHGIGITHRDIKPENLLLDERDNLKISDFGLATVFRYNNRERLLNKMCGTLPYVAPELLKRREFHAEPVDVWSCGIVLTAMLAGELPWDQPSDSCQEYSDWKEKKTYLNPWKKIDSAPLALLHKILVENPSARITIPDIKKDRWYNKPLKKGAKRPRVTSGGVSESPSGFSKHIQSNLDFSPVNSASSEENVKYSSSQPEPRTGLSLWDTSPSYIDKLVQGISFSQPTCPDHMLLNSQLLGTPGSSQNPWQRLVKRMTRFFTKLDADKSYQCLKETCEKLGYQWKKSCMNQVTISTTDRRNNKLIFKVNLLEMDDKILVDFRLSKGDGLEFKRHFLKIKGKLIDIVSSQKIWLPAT

Ribosomal protein S6 kinase alpha-1, sequence (Q15418 whole entry): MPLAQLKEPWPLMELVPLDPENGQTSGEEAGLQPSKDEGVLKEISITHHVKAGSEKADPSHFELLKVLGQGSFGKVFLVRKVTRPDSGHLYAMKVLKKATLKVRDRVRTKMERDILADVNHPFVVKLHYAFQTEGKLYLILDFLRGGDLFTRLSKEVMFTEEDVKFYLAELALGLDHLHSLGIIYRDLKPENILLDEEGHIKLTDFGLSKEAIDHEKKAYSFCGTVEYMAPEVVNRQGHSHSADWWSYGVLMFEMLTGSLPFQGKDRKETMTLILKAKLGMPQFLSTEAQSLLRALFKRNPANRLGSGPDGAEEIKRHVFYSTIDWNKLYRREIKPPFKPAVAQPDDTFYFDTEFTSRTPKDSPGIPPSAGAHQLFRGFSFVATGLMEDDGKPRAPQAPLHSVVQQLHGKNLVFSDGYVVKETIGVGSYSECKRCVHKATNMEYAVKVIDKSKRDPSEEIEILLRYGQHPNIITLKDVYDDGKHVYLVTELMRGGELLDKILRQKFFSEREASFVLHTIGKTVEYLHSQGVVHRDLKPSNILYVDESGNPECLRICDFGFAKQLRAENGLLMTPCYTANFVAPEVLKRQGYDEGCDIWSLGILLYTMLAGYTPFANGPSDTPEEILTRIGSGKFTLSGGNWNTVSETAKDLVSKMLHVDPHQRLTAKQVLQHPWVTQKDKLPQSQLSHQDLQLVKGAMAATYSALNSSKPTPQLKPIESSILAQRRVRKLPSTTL
Calcium/calmodulin-dependent protein kinase type 1 (Homo sapiens), sequence (Q14012 whole entry, looked up): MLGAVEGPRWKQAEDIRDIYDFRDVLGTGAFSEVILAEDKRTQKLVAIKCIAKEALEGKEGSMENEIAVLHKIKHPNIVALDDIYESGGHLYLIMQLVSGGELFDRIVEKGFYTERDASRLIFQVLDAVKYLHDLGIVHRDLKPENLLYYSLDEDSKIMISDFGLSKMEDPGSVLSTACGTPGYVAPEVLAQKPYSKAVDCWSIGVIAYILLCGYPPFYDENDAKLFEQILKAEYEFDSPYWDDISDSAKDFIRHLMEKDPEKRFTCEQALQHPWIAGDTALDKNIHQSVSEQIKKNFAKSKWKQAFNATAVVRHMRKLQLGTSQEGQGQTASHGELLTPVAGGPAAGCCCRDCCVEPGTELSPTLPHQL
Cyclin-dependent kinase 3 (Homo sapiens), sequence (Q00526 whole entry, looked up): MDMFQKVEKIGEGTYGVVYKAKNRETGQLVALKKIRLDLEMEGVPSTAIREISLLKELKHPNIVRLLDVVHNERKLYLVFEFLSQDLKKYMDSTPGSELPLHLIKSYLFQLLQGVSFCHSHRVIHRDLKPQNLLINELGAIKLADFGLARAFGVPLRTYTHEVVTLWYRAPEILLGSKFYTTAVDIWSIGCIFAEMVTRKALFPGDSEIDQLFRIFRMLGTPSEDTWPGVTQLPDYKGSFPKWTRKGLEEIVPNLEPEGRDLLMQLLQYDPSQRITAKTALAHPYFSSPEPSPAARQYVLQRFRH

Consider `CC1=C(C#N)C(c2ccc3c(c2)c(NC(=O)c2ccccc2C)nn3C)C(C#N)=C(C)N1` [BAY-974], for which the residual activity is 89% in [1]; 100% in experiment [2]; 100% in experiment [3]; 100% in experiment [4]; 79% in [5]; 73% in [6]. Besides, the residual activity in experiment [7] was 100%; in experiment [8] it was 99%; in [9], 99%; in [10] it was 98%; in [11] it was 80%; in experiment [12], 7.5%. Further, the figures for the residual activity in experiment [13] and in experiment [14] were 100% and 81%, respectively.

For the compound `CCc1ccccc1C(=O)Nc1n[nH]c2c(C)c(F)c(C3C(C#N)=C(C)N(C)C(C)=C3C#N)cc12` [BAY-3827], the residual activity was 100% in experiment [1]; 100% in experiment [2]; 100% in [3]; 90% in experiment [4]; 100% in [5]; 99% in experiment [6]. In addition, the residual activity is 1.8% in experiment [7]; 88% in experiment [8]; 100% in experiment [9]; 76% in experiment [10]; 100% in experiment [11]; 100% in [12]. In addition, the residual activity was 84% in experiment [13] and 91% in experiment [14].
